Experimental data: patent US20100331269A1, “TRITERPENES DERIVATIVES AND USES THEREOF AS ANTITUMOR AGENTS OR ANTI-INFLAMMATORY AGENTS” (priority 2006, published 2010)

Key:
DLD-1 cells = test: Cytotoxicity, Hoechst DNA assay, DLD-1; type: cell-based, human; conditions: ± SD
Description: (§1) Human lung carcinoma (A-549), human colon adenocarcinoma (DLD-1), human normal fibroblasts (WS1), mice melanoma (B16-F1), Human glioma (U-251), Human hepatocellular carcinoma (HEP G2), Human prostate adenocarcinoma (PC-3), Human ovary teratocarcinoma metastatic (PA-1), Human breast adenocarcinona metastatic (MDA-MB-231), Human breast adenocarcinoma (MCF-7) and Human malignant melanoma (SK-MEL-2) cell lines were obtained from the American Type Culture Collection (ATCC). All cell lines were cultured in minimum essential medium containing Earle's salts and L-glutamine (Mediatech Cellgro, Va.), to which was added 10% fetal bovine serum (Hyclone), vitamins (1×), penicillin (100 I.U./mL) and streptomycin (100 μg/mL), essential amino acids (1×) and sodium pyruvate (1×) (Mediatech Cellgro, Va.). Cells were kept at 37° C. in a humidified environment containing 5% CO2.
(§2) The cytotoxicity of triterpenes (1-8) and corresponding glycosides (9-30) (Table 2 below) as well as of germanicane-type triterpenes and glycosides (31-44) (Table 3 below) was assessed towards human cancer (A-549, DLD-1), mouse melanoma (B16-F1) and human normal skin fibroblast (WS1) cell lines using the resazurin reduction test (RTT test) as previously described (O'Brien, J. et al., Eur. J. Biochem. 2000, 267, 5421-5426). Measurements of fluorescence were carried out after 48 continuous hours of contact between compounds and cells. Results presented in Tables 2 and 3 below express the concentration inhibiting 50% of the cell growth (IC50). Known for its activity against A-549, betulinic acid (3) was used as a positive control in this experimentation. […] The cytotoxic activity of some of these compounds was also assessed using the Hoechst DNA assay (Table 4 below).

WS-1 cells = test: Cytotoxicity, Hoechst DNA assay, WS-1; type: cell-based, human; conditions: ± SD
Description: as §1, §2

[1] = test system: A-549 human lung carcinoma cells; test: Cytotoxicity, resazurin metabolism assay, A-549; type: cell-based; conditions: 48 h, mean ± SD
Description: as §1
(§3) Exponentially growing cells were plated in 96-well microplates (Costar, Corning Inc.) at a density of 5×10^3 cells per well in 100 μL of culture medium and were allowed to adhere for 16 hours before treatment. Increasing concentrations of each compound in DMSO (Sigma-Aldrich) were then added (100 μL per well) and the cells were incubated for 48 h. […] Cytotoxicity was assessed using resazurin (O'Brien, J. et al., Eur. J. Biochem. 2000, 267, 5421-5426) on an automated 96-well Fluoroskan Ascent F1™ plate reader (Labsystems) using excitation and emission wavelengths of 530 nm and 590 nm, respectively. Fluorescence was proportional to the cellular metabolic activity in each well. Survival percentage was defined as the fluorescence in experimental wells compared to that in control wells after subtraction of blank values. Each experiment was carried out three times in triplicata. IC50 results were expressed as mean±standard deviation.
as §2

[2] = test system: DLD-1 human colorectal adenocarcinoma cells; test: Cytotoxicity, resazurin metabolism assay, DLD-1; type: cell-based; conditions: 48 h, mean ± SD
Description: as §1, §3, §2

A-549 cells = test: Cytotoxicity, Hoechst DNA assay, A-549; type: cell-based, human; conditions: ± SD
Description: as §1, §2

[3] = test system: B16-F1 mouse melanoma cells; test: Cytotoxicity, resazurin metabolism assay, B16-F1; type: cell-based; conditions: 48 h, mean ± SD
Description: as §1, §3, §2

[4] = test system: WS-1 human normal skin fibroblasts; test: Cytotoxicity, resazurin metabolism assay, WS-1; type: cell-based; conditions: 48 h, mean ± SD
Description: as §1, §3, §2

B16-F1 cells = test: Cytotoxicity, Hoechst DNA assay, B16-F1; type: cell-based, mouse; conditions: ± SD
Description: as §1, §2

Row | SMILES | IC50 (DLD-1 cells) | IC50 (WS-1 cells) | IC50 [1] | IC50 [2] | IC50 (A-549 cells) | IC50 [3] | IC50 [4] | IC50 (B16-F1 cells)
1 | C=CCOC(=O)C12CCC(C(=C)C)C1C1CCC3C4(C)CCC(O)C(C)(C)C4CCC3(C)C1(C)CC2 (stereo not shown) [Compound 8, Allyl betulinate] | > 225 µM | > 225 µM | > 225 µM | > 225 µM | > 225 µM | > 225 µM | > 225 µM | > 225 µM
2 | C=C(C)[C@@H]1CC[C@]2(COC(C)=O)CC[C@]3(C)[C@H](CC[C@@H]4[C@@]5(C)CC[C@H](OC(C)=O)C(C)(C)[C@@H]5CC[C@]43C)[C@@H]12 [Compound 4, 3,28-Diacetoxybetulin] | – | – | > 95 µM | > 95 µM | – | > 95 µM | > 95 µM | –
3 | C=C(C)[C@@H]1CC[C@]2(CO)CC[C@]3(C)[C@H](CC[C@@H]4[C@@]5(C)CC[C@H](O[C@@H]6O[C@H](CO)[C@@H](O)[C@H](O)[C@H]6O)C(C)(C)[C@@H]5CC[C@]43C)[C@@H]12 [Compound 12, 3-O-β-D-Glucopyranoside of Betulin] | > 200 µM | > 200 µM | > 200 µM | > 200 µM | > 200 µM | > 200 µM | > 200 µM | > 200 µM
4 | C=C(C)[C@@H]1CC[C@]2(CO[C@@H]3O[C@H](CO)[C@@H](O)[C@H](O)[C@H]3O)CC[C@]3(C)[C@H](CC[C@@H]4[C@@]5(C)CC[C@H](O)C(C)(C)[C@@H]5CC[C@]43C)[C@@H]12 [Compound 15, 28-O-β-D-Glucopyranoside of Betulin] | > 194 µM | > 194 µM | > 248 µM | > 248 µM | > 194 µM | > 248 µM | > 248 µM | > 194 µM
5 | C=C(C)[C@@H]1CC[C@]2(CO)CC[C@]3(C)[C@H](CC[C@@H]4[C@@]5(C)CC[C@H](O)C(C)(C)[C@@H]5CC[C@]43C)[C@@H]12 [Compound 2, Betulin, reference compound] | 5.9 ± 0.6 µM | 5 ± 1 µM | 3.8 ± 0.09 µM | 6.6 ± 0.3 µM | 4.5 ± 0.3 µM | 13.8 ± 0.5 µM | 3.58 ± 0.07 µM | 10.3 ± 0.7 µM
6 | C=C(C)[C@@H]1CC[C@]2(C(=O)O)CC[C@]3(C)[C@H](CC[C@@H]4[C@@]5(C)CC[C@H](O[C@@H]6O[C@H](CO)[C@@H](O)[C@H](O)[C@H]6O)C(C)(C)[C@@H]5CC[C@]43C)[C@@H]12 [Compound 21, 3-O-β-D-Glucopyranoside of Betulinic Acid] | 12 ± 3 µM | > 178 µM | > 178 µM | 32 ± 9 µM | > 178 µM | 49 ± 13 µM | > 178 µM | 17 ± 4 µM
7 | C=C(C)[C@@H]1CC[C@]2(COC(C)=O)CC[C@]3(C)[C@H](CC[C@@H]4[C@@]5(C)CC[C@H](O)C(C)(C)[C@@H]5CC[C@]43C)[C@@H]12 [Compound 5, 28-Acetoxybetulin] | 46 ± 5 µM | 47 ± 2 µM | 75 ± 7 µM | 56 ± 4 µM | 49 ± 7 µM | 43 ± 2 µM | 44 ± 2 µM | 35 ± 1 µM
8 | C=C(C)[C@@H]1CC[C@]2(C)CC[C@]3(C)[C@H](CC[C@@H]4[C@@]5(C)CC[C@H](O[C@@H]6O[C@@H](C)[C@H](O)[C@@H](O)[C@H]6O)C(C)(C)[C@@H]5CC[C@]43C)[C@@H]12 [Compound 10, 3-O-α-L-Rhamnopyranoside of lupeol] | > 178 µM | > 178 µM | > 178 µM | > 178 µM | > 178 µM | > 178 µM | > 178 µM | > 178 µM
9 | CC1(C)CC[C@]23CC[C@]4(C)[C@H](CC[C@@H]5[C@@]6(C)CC[C@H](O[C@H]7O[C@H](CO)[C@@H](O)[C@H](O)[C@@H]7O)C(C)(C)[C@@H]6CC[C@]54C)[C@H]2[C@H]1OC3 [Compound 37, 3-O-α-D-Mannopyranoside of Allobetulin] | – | – | > 100 µM | > 100 µM | – | – | > 100 µM | –
10 | C=C(C)[C@@H]1CC[C@]2(C(=O)OC)CC[C@]3(C)[C@H](CC[C@@H]4[C@@]5(C)CC[C@H](O[C@@H]6O[C@@H](C)[C@H](O)[C@@H](O)[C@H]6O)C(C)(C)[C@@H]5CC[C@]43C)[C@@H]12 [Compound 19, 3-O-α-L-Rhamnopyranoside of Methyl Betulinate] | > 150 µM | 65 ± 5 µM | 59 ± 3 µM | > 183 µM | 58 ± 2 µM | 55 ± 2 µM | 53 ± 2 µM | 46 ± 1 µM
11 | CC1(C)CC[C@]23CC[C@]4(C)[C@H](CC[C@@H]5[C@@]6(C)CC[C@H](O[C@@H]7OC[C@@H](O)[C@H](O)[C@H]7O)C(C)(C)[C@@H]6CC[C@]54C)[C@H]2[C@H]1OC3 [Compound 38, 3-O-β-D-Xylopyranoside of Allobetulin] | – | – | > 100 µM | > 100 µM | – | – | > 100 µM | –
12 | C=C(C)[C@@H]1CC[C@]2(CO)CC[C@]3(C)[C@H](CC[C@@H]4[C@@]5(C)CC[C@H](O[C@@H]6OC[C@@H](O)[C@H](O)[C@H]6O)C(C)(C)[C@@H]5CC[C@]43C)[C@@H]12 [Compound 27, 3-O-β-D-Xylopyranoside of Betulin] | – | – | 90 ± 10 µM | > 100 µM | – | – | > 100 µM | –
13 | CC1(C)CC[C@]23CC[C@]4(C)[C@H](CC[C@@H]5[C@@]6(C)CC[C@H](O[C@@H]7OC[C@@H](O)[C@H](O)[C@H]7O)C(C)(C)[C@@H]6CC[C@]54C)[C@H]2[C@H]1OC3=O [Compound 44, 3-O-β-D-Xylopyranoside of 28-Oxyallobetulin] | – | – | > 100 µM | > 100 µM | – | – | > 100 µM | –
14 | C=C(C)C1CCC2(COC3OC(C)C(O)C(O)C3O)CCC3(C)C(CCC4C5(C)CCC(O)C(C)(C)C5CCC43C)C12 [Compound 16, 28-O-α-L-Rhamnopyranoside of Betulin] | > 194 µM | > 194 µM | > 228 µM | > 228 µM | > 194 µM | > 228 µM | > 228 µM | > 194 µM
15 | C=C(C)[C@@H]1CC[C@]2(CO)CC[C@]3(C)[C@H](CC[C@@H]4[C@@]5(C)CC[C@H](OC(C)=O)C(C)(C)[C@@H]5CC[C@]43C)[C@@H]12 [Compound 6, 3-Acetoxybetulin] | > 253 µM | > 180 µM | > 253 µM | > 253 µM | 90 ± 10 µM | > 253 µM | > 253 µM | 42 ± 6 µM
16 | C=C(C)[C@@H]1CC[C@]2(C(=O)OC)CC[C@]3(C)[C@H](CC[C@@H]4[C@@]5(C)CC[C@H](O)C(C)(C)[C@@H]5CC[C@]43C)[C@@H]12 [Compound 7, Methyl Betulinate] | 21 ± 1 µM | 19 ± 4 µM | 19 ± 3 µM | 25 ± 4 µM | 19 ± 2 µM | 26 ± 1 µM | 19 ± 2 µM | 15.7 ± 0.9 µM
17 | C=C(C)[C@@H]1CC[C@]2(C)CC[C@]3(C)[C@H](CC[C@@H]4[C@@]5(C)CC[C@H](O)C(C)(C)[C@@H]5CC[C@]43C)[C@@H]12 [Compound 1, Lupeol, reference compound] | 102 ± 6 µM | 70 ± 10 µM | 165 ± 8 µM | 125 ± 6 µM | 130 ± 20 µM | 104 ± 6 µM | 63 ± 3 µM | 72 ± 9 µM
